PubChem BioAssay (NCI)
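GI50 = concentration required for 50% inhibition of growth. Definition used: TGI = concentration required for complete inhibition of growth.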

Legend:
Assay in all cases: inhibition of tumour cell growth, NCI panel, 384-well format
NCI-H522 lung = tested on: NCI-H522 lung
A549 NSCLC = tested on: A549 NSCLC
SK-MEL-28 melanoma = tested on: SK-MEL-28 melanoma
SNB-75 CNS = tested on: SNB-75 CNS
HCC-2998 colon = tested on: HCC-2998 colon
A498 renal = tested on: A498 renal
OVCAR-3 ovarian = tested on: OVCAR-3 ovarian
HT29 colon = tested on: HT29 colon
UACC-257 melanoma = tested on: UACC-257 melanoma
HS 578T breast = tested on: HS 578T breast
SF-539 CNS = tested on: SF-539 CNS
MDA-MB-435 melanoma = tested on: MDA-MB-435 melanoma
COLO 205 colon = tested on: COLO 205 colon
SK-OV-3 ovarian = tested on: SK-OV-3 ovarian
RPMI-8226 leukemia = tested on: RPMI-8226 leukemia
MDA-MB-468 breast = tested on: MDA-MB-468 breast
NCI-H226 lung = tested on: NCI-H226 lung
TK-10 renal = tested on: TK-10 renal
IGROV1 ovarian = tested on: IGROV1 ovarian
SF-268 CNS = tested on: SF-268 CNS
M14 melanoma = tested on: M14 melanoma
MALME-3M melanoma = tested on: MALME-3M melanoma
CAKI-1 renal = tested on: CAKI-1 renal
UACC-62 melanoma = tested on: UACC-62 melanoma
SNB-19 CNS = tested on: SNB-19 CNS
NCI-H23 lung = tested on: NCI-H23 lung
OVCAR-5 ovarian = tested on: OVCAR-5 ovarian
DU-145 prostate = tested on: DU-145 prostate
SR leukemia = tested on: SR leukemia
RXF 393 renal = tested on: RXF 393 renal
OVCAR-4 ovarian = tested on: OVCAR-4 ovarian
OVCAR-8 ovarian = tested on: OVCAR-8 ovarian
ACHN renal = tested on: ACHN renal
KM12 colon = tested on: KM12 colon
HOP-92 NSCLC = tested on: HOP-92 NSCLC
HOP-62 NSCLC = tested on: HOP-62 NSCLC
MDA-MB-231 breast = tested on: MDA-MB-231 breast
U251 glioblastoma = tested on: U251 glioblastoma
T-47D breast = tested on: T-47D breast
SN12C renal = tested on: SN12C renal
HCT-116 colon = tested on: HCT-116 colon
BT-549 breast = tested on: BT-549 breast
EKVX NSCLC = tested on: EKVX NSCLC
LOX IMVI melanoma = tested on: LOX IMVI melanoma
SK-MEL-5 melanoma = tested on: SK-MEL-5 melanoma
HCT-15 colon = tested on: HCT-15 colon
NCI-H460 NSCLC = tested on: NCI-H460 NSCLC
MCF7 breast = tested on: MCF7 breast
PC-3 prostate = tested on: PC-3 prostate
NCI-H322M lung = tested on: NCI-H322M lung
NCI/ADR-RES ovarian = tested on: NCI/ADR-RES ovarian
HL-60(TB) leukemia = tested on: HL-60(TB) leukemia
SF-295 CNS = tested on: SF-295 CNS
MOLT-4 leukemia = tested on: MOLT-4 leukemia

## CCOc1ccccc1N=Nc1c(C)[nH]n(-c2nc(-c3ccccc3)cs2)c1=O
NCI-H522 lung
  GI50: > 100 µM
  TGI: > 100 µM
A549 NSCLC
  GI50: > 100 µM
  TGI: > 100 µM
SK-MEL-28 melanoma
  GI50: > 100 µM
  TGI: > 100 µM
SNB-75 CNS
  GI50: > 100 µM
  TGI: > 100 µM
HCC-2998 colon
  GI50: > 100 µM
  TGI: > 100 µM
A498 renal
  GI50: > 100 µM
  TGI: > 100 µM
OVCAR-3 ovarian
  GI50: > 100 µM
  TGI: > 100 µM
HT29 colon
  GI50: > 100 µM
  TGI: > 100 µM
UACC-257 melanoma
  GI50: > 100 µM
  TGI: > 100 µM
HS 578T breast
  GI50: > 100 µM
  TGI: > 100 µM
SF-539 CNS
  GI50: > 100 µM
  TGI: > 100 µM
MDA-MB-435 melanoma
  GI50: > 100 µM
  TGI: > 100 µM
COLO 205 colon
  GI50: > 100 µM
  TGI: > 100 µM
SK-OV-3 ovarian
  GI50: > 100 µM
  TGI: > 100 µM
RPMI-8226 leukemia
  GI50: 53.9 µM
  TGI: > 100 µM
MDA-MB-468 breast
  GI50: 1.47 µM
  TGI: 9.75 µM
NCI-H226 lung
  GI50: > 100 µM
  TGI: > 100 µM
TK-10 renal
  GI50: > 100 µM
  TGI: > 100 µM
IGROV1 ovarian
  GI50: > 100 µM
  TGI: > 100 µM
SF-268 CNS
  GI50: > 100 µM
  TGI: > 100 µM
M14 melanoma
  GI50: > 100 µM
  TGI: > 100 µM
MALME-3M melanoma
  GI50: > 100 µM
  TGI: > 100 µM
CAKI-1 renal
  GI50: > 100 µM
  TGI: > 100 µM
UACC-62 melanoma
  GI50: > 100 µM
  TGI: > 100 µM
SNB-19 CNS
  GI50: > 100 µM
  TGI: > 100 µM
NCI-H23 lung
  GI50: > 100 µM
  TGI: > 100 µM
OVCAR-5 ovarian
  GI50: > 100 µM
  TGI: > 100 µM
DU-145 prostate
  GI50: > 100 µM
  TGI: > 100 µM
SR leukemia
  GI50: > 100 µM
  TGI: > 100 µM
RXF 393 renal
  GI50: > 100 µM
  TGI: > 100 µM
OVCAR-4 ovarian
  GI50: > 100 µM
  TGI: > 100 µM
OVCAR-8 ovarian
  GI50: > 100 µM
  TGI: > 100 µM
ACHN renal
  GI50: > 100 µM
  TGI: > 100 µM
KM12 colon
  GI50: > 100 µM
  TGI: > 100 µM
HOP-92 NSCLC
  GI50: > 100 µM
  TGI: > 100 µM
HOP-62 NSCLC
  GI50: > 100 µM
  TGI: > 100 µM
MDA-MB-231 breast
  GI50: > 100 µM
  TGI: > 100 µM
U251 glioblastoma
  GI50: > 100 µM
  TGI: > 100 µM
T-47D breast
  GI50: > 100 µM
  TGI: > 100 µM
SN12C renal
  GI50: > 100 µM
  TGI: > 100 µM
HCT-116 colon
  GI50: > 100 µM
  TGI: > 100 µM
BT-549 breast
  GI50: > 100 µM
  TGI: > 100 µM
EKVX NSCLC
  GI50: > 100 µM
  TGI: > 100 µM
LOX IMVI melanoma
  GI50: > 100 µM
  TGI: > 100 µM
SK-MEL-5 melanoma
  GI50: > 100 µM
  TGI: > 100 µM
HCT-15 colon
  GI50: > 100 µM
  TGI: > 100 µM
NCI-H460 NSCLC
  GI50: > 100 µM
  TGI: > 100 µM
MCF7 breast
  GI50: > 100 µM
  TGI: > 100 µM
PC-3 prostate
  GI50: > 100 µM
  TGI: > 100 µM
NCI-H322M lung
  GI50: > 100 µM
  TGI: > 100 µM
NCI/ADR-RES ovarian
  GI50: > 100 µM
  TGI: > 100 µM
HL-60(TB) leukemia
  GI50: 21.4 µM
  TGI: > 100 µM
SF-295 CNS
  GI50: > 100 µM
  TGI: > 100 µM
MOLT-4 leukemia
  GI50: 98.9 µM
  TGI: > 100 µM

## Nc1nc(Nc2ccc(C3CCC(N4CCOCC4)CC3)cc2)nn1-c1ccccn1 (stereo unspecified)
NCI-H522 lung
  GI50: 3.11 µM
  TGI: 9.08 µM
A549 NSCLC
  GI50: 3.49 µM
  TGI: > 100 µM
SK-MEL-28 melanoma
  GI50: 1.81 µM
  TGI: 3.34 µM
SNB-75 CNS
  GI50: 2 µM
  TGI: 3.94 µM
HCC-2998 colon
  GI50: 2.97 µM
  TGI: 6.32 µM
A498 renal
  GI50: 2.57 µM
  TGI: 5.75 µM
OVCAR-3 ovarian
  GI50: 3.13 µM
  TGI: 7.21 µM
HT29 colon
  GI50: 1.82 µM
  TGI: 3.59 µM
UACC-257 melanoma
  GI50: 1.83 µM
  TGI: 3.31 µM
HS 578T breast
  GI50: 1.89 µM
  TGI: 3.54 µM
SF-539 CNS
  GI50: 1.43 µM
  TGI: 3.02 µM
MDA-MB-435 melanoma
  GI50: 2.25 µM
  TGI: 6.2 µM
COLO 205 colon
  GI50: 2.89 µM
  TGI: 5.83 µM
SK-OV-3 ovarian
  GI50: 3.33 µM
  TGI: > 100 µM
RPMI-8226 leukemia
  GI50: 2.3 µM
  TGI: 3.78 µM
NCI-H226 lung
  GI50: 2.59 µM
  TGI: 6.49 µM
TK-10 renal
  GI50: 5.32 µM
  TGI: 24.1 µM
IGROV1 ovarian
  GI50: 3.06 µM
  TGI: 11.6 µM
SF-268 CNS
  GI50: 3.37 µM
  TGI: 13.2 µM
M14 melanoma
  GI50: 2.26 µM
  TGI: 3.89 µM
MALME-3M melanoma
  GI50: 1.86 µM
  TGI: 4.1 µM
CAKI-1 renal
  GI50: 3.08 µM
  TGI: > 100 µM
UACC-62 melanoma
  GI50: 2.03 µM
  TGI: 4.56 µM
SNB-19 CNS
  GI50: 3.68 µM
  TGI: 16.5 µM
NCI-H23 lung
  GI50: 2.77 µM
  TGI: > 100 µM
OVCAR-5 ovarian
  GI50: 2.44 µM
  TGI: 5.19 µM
DU-145 prostate
  GI50: 3.08 µM
  TGI: 8.5 µM
SR leukemia
  GI50: 0.255 µM
  TGI: 0.559 µM
OVCAR-4 ovarian
  GI50: 7.22 µM
  TGI: 27.8 µM
OVCAR-8 ovarian
  GI50: 5.06 µM
  TGI: > 100 µM
ACHN renal
  GI50: 2.84 µM
  TGI: 7.6 µM
KM12 colon
  GI50: 0.291 µM
  TGI: > 100 µM
HOP-92 NSCLC
  GI50: 4.97 µM
  TGI: 20.4 µM
HOP-62 NSCLC
  GI50: 2.58 µM
  TGI: 6.7 µM
MDA-MB-231 breast
  GI50: 4.56 µM
  TGI: > 100 µM
U251 glioblastoma
  GI50: 2.02 µM
  TGI: 4.06 µM
SN12C renal
  GI50: 1.05 µM
  TGI: 3.84 µM
HCT-116 colon
  GI50: 2.42 µM
  TGI: 6 µM
BT-549 breast
  GI50: 1.67 µM
  TGI: 3.25 µM
EKVX NSCLC
  GI50: 4.45 µM
  TGI: > 100 µM
LOX IMVI melanoma
  GI50: 2.04 µM
  TGI: 3.63 µM
SK-MEL-5 melanoma
  GI50: 1.7 µM
  TGI: 3.23 µM
HCT-15 colon
  GI50: 2.01 µM
  TGI: 4.14 µM
NCI-H460 NSCLC
  GI50: 3.17 µM
  TGI: 10.7 µM
MCF7 breast
  GI50: 3.43 µM
  TGI: > 100 µM
PC-3 prostate
  GI50: 3.57 µM
  TGI: 11.9 µM
NCI-H322M lung
  GI50: 4.03 µM
  TGI: 15 µM
HL-60(TB) leukemia
  GI50: 1.35 µM
  TGI: 2.67 µM
MOLT-4 leukemia
  GI50: 1.76 µM
  TGI: 3.19 µM
